Active and inactive are the calls of the source. The rule behind the calls is not given here. *1 amine or outer side, *2 acyl side, *3 side chain or, on linkers, in order; H or OH if unused. Where a SMILES comes first, the peptide text is derived from it. [ ]: non-standard residue; d: D form. X1 = O=C(CCc1cccc2c1oc1c(CCN[*:1])cccc12)[*:2]; PEG8 = NCCOCCOCCOCCOCCOCCOCCOCCOCCC(=O)O; Met(O) = CS(=O)CC[C@H](N)C(=O)O
Legend:
[1] = target: Amyloid-beta precursor protein (Homo sapiens) (UniProt P05067); experiment: Inhibition of pH-click Amyloid beta (1 to 42) (unknown origin) aggregation after 24 hrs by Thioflavin-T fluorescence assay; set-up: concentration or dose not given beside the values; conditions: concentration not given here
[2] = target: Amyloid-beta precursor protein (Homo sapiens) (UniProt P05067); experiment: Inhibition of pH-click Amyloid beta (1 to 42) (unknown origin) aggregation after 48 hrs by Thioflavin-T fluorescence assay; set-up: concentration or dose not given beside the values; conditions: concentration not given here
[3] = target: Amyloid-beta precursor protein (Homo sapiens) (UniProt P05067); experiment: Inhibition of authentic Amyloid beta (1 to 42) (unknown origin) aggregation 6 to 48 hrs by Thioflavin-T fluorescence assay
[4] = target: Amyloid-beta precursor protein (Homo sapiens) (UniProt P05067); experiment: Inhibition of pH-click Amyloid beta (1 to 42) (unknown origin) aggregation 6 to 48 hrs by Thioflavin-T fluorescence assay

Sequence of Amyloid-beta precursor protein (Homo sapiens) (P05067 whole entry): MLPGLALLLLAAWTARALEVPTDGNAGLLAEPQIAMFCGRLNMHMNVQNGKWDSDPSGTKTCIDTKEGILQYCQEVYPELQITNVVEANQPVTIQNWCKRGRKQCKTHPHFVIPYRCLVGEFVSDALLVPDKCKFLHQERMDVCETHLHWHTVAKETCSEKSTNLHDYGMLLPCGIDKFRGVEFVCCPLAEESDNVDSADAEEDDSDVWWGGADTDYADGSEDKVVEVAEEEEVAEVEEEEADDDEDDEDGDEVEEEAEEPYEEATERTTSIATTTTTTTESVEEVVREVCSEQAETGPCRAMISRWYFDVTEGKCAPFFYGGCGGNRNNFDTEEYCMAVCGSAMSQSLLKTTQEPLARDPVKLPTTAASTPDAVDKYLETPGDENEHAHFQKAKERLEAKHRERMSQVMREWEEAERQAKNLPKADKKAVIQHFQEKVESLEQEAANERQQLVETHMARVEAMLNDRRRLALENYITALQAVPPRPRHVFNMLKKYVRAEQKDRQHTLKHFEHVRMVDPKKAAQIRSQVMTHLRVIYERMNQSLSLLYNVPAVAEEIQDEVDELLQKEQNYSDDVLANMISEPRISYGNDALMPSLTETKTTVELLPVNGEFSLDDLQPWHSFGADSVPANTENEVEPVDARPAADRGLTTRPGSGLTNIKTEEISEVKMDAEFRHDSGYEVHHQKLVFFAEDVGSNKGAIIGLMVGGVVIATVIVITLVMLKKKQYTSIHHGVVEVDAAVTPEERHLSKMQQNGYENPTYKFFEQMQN

Row | Compound | inhibition [1] [%] | inhibition [2] [%] | inhibition [3] | inhibition [4]
1 | CC[C@H](C)[C@H](NC(=O)[C@H](C)NC(=O)CCc1cccc2c1oc1c(CCNC(=O)[C@H](CO)NC(=O)CNC(=O)[C@@H](NC(=O)[C@@H](N)CC(=O)O)C(C)C)cccc12)C(=O)N[C@H](C(=O)NCC(=O)NCCOCCOCCOCCOCCOCCOCCOCCOCCC(=O)O)[C@@H](C)CC (H-DVGS[X1]AIIG[PEG8]-OH) | < 5 | < 5 |  | 
2 | CC[C@H](C)[C@H](NC(=O)[C@H](C)NC(=O)CNC(=O)CCc1cccc2c1oc1c(CCNC(=O)CNC(=O)[C@@H](NC(=O)[C@H](CC(=O)O)NC(=O)[C@@H](N)CCC(=O)O)C(C)C)cccc12)C(=O)N[C@H](C(=O)NCCOCCOCCOCCOCCOCCOCCOCCOCCC(=O)O)[C@@H](C)CC (H-EDVG[X1]GAII[PEG8]-OH) | 16 | 20 |  | 
3 | CC[C@H](C)[C@H](NC(=O)CCc1cccc2c1oc1c(CCNC(=O)[C@H](CCCCN)NC(=O)[C@H](CC(N)=O)NC(=O)[C@H](CO)NC(=O)CN)cccc12)C(=O)NCC(=O)N[C@@H](CC(C)C)C(=O)N[C@@H](CC[S+](C)[O-])C(=O)NCCOCCOCCOCCOCCOCCOCCOCCOCCC(=O)O (some centres undefined) (H-GSNK[X1]IGL[Met(O)][PEG8]-OH) | 12 | < 5 |  | 
4 | CC(C)C[C@H](NC(=O)CNC(=O)CCc1cccc2c1oc1c(CCNC(=O)CNC(=O)[C@H](CCCCN)NC(=O)[C@H](CC(N)=O)NC(=O)[C@@H](N)CO)cccc12)C(=O)N[C@@H](CC[S+](C)[O-])C(=O)N[C@H](C(=O)NCCOCCOCCOCCOCCOCCOCCOCCOCCC(=O)O)C(C)C (some centres undefined) (H-SNKG[X1]GL[Met(O)]V[PEG8]-OH) | 7 | < 5 |  | 
5 | CC[C@H](C)[C@H](NC(=O)CCc1cccc2c1oc1c(CCNC(=O)[C@H](CC(N)=O)NC(=O)[C@H](CO)NC(=O)CNC(=O)[C@@H](N)C(C)C)cccc12)C(=O)N[C@H](C(=O)NCC(=O)N[C@@H](CC(C)C)C(=O)NCCOCCOCCOCCOCCOCCOCCOCCOCCC(=O)O)[C@@H](C)CC (H-VGSN[X1]IIGL[PEG8]-OH) | 49 | 39 |  | 
6 | CC[C@H](C)[C@H](NC(=O)[C@H](C)NC(=O)CCc1cccc2c1oc1c(CCNC(=O)[C@H](CO)NC(=O)CNC(=O)[C@@H](NC(=O)[C@H](CC(=O)O)NC(=O)CCOCCOCCOCCOCCOCCOCCOCCOCCN)C(C)C)cccc12)C(=O)N[C@H](C(=O)NCC(=O)O)[C@@H](C)CC (H-[PEG8]DVGS[X1]AIIG-OH) | 10 | < 5 |  | 
7 | CC[C@H](C)[C@H](NC(=O)[C@@H](NC(=O)[C@H](C)NC(=O)CNC(=O)CCc1cccc2c1oc1c(CCNC(=O)CNC(=O)[C@@H](NC(=O)[C@H](CC(=O)O)NC(=O)[C@H](CCC(=O)O)NC(=O)CCOCCOCCOCCOCCOCCOCCOCCOCCN)C(C)C)cccc12)[C@@H](C)CC)C(=O)O (H-[PEG8]EDVG[X1]GAII-OH) | 13 | < 5 |  | 
8 | CC[C@H](C)[C@H](NC(=O)CCc1cccc2c1oc1c(CCNC(=O)[C@H](CCCCN)NC(=O)[C@H](CC(N)=O)NC(=O)[C@H](CO)NC(=O)CNC(=O)CCOCCOCCOCCOCCOCCOCCOCCOCCN)cccc12)C(=O)NCC(=O)N[C@@H](CC(C)C)C(=O)N[C@@H](CC[S+](C)[O-])C(=O)O (some centres undefined) (H-[PEG8]GSNK[X1]IGL[Met(O)]-OH) | 9 | < 5 |  | 
9 | CC(C)C[C@H](NC(=O)CNC(=O)CCc1cccc2c1oc1c(CCNC(=O)CNC(=O)[C@H](CCCCN)NC(=O)[C@H](CC(N)=O)NC(=O)[C@H](CO)NC(=O)CCOCCOCCOCCOCCOCCOCCOCCOCCN)cccc12)C(=O)N[C@@H](CC[S+](C)[O-])C(=O)N[C@H](C(=O)O)C(C)C (some centres undefined) (H-[PEG8]SNKG[X1]GL[Met(O)]V-OH) | 13 | < 5 |  | 
10 | CC[C@H](C)[C@H](NC(=O)CCc1cccc2c1oc1c(CCNC(=O)[C@H](CC(N)=O)NC(=O)[C@H](CO)NC(=O)CNC(=O)[C@@H](NC(=O)CCOCCOCCOCCOCCOCCOCCOCCOCCN)C(C)C)cccc12)C(=O)N[C@H](C(=O)NCC(=O)N[C@@H](CC(C)C)C(=O)O)[C@@H](C)CC (H-[PEG8]VGSN[X1]IIGL-OH) | 56 | 56 |  | 
11 | CC(C)C[C@@H](NC(=O)[C@H](N)CCCCN)C(=O)N[C@@H](C(=O)N[C@H](Cc1ccccc1)C(=O)N[C@H](Cc1ccccc1)C(=O)N[C@H](C)C(=O)O)C(C)C (H-[dK][dL][dV][dF][dF][dA]-OH) |  |  | Active | Active
12 | H-KLVFFA-OH |  |  | Active | Active
